Assay results: patent publication US12544356B2, “Combination of a chromene compound and a second active agent” (EUCLISES PHARMACEUTICALS, INC., priority 2016, dated 2026)

Legend:
[1] = tested on: intratumoral immune cells (CT26 tumors); assay: Intratumoral immune response by flow cytometry (Example 4); assay type: in vivo, Female Envigo BALB/c (BALB/cAnNHsd) mice
Protocol: CT26 murine colon carcinoma cells were prepared as in Example 2. Female Envigo BALB/c (BALB/cAnNHsd) were inoculated with 5×10^5 CT26 cells suspended in PBS (200 μL) subcutaneously high in the axilla (just under the fore limb). […] The antibodies were administered via i.p. injection on days 3, 6, 9, 12, and 16 following inoculation. Compound A01 was given per oral daily. The mice were euthanized two hours following final dose on Day 16 and samples were prepared for testing.
Following euthanization, tumors were removed and processed to recover live cells. Red blood cells were removed. The cells were stained for surface markers and, where applicable, permeabilized for intracellular staining. The cells were washed and suspended in flow cytometry staining buffer and analyzed via flow cytometry.
The treatment had minimal effect on the relative number of Tregs (CD25^+Foxp3^+) and MDSCs (CD11b^+Ly6G^+) (as a percentage of total CD45^+ cells). […] FIG. 3 correlates CD8^+ cell percentages to tumor regression.

[2] = Plasma concentration of Compound A01 and erlotinib (Example 1); assay type: in vivo, CB17SCID male mice; settings: for concentration at 2 h / concentration at 6 h: male, CB17SCID, mouse, plasma; for concentration at 2 h: 2 hours post dosing; for concentration at 6 h: 6 hours post dosing
Protocol: (§1) 48 CB17SCID male mice were implanted with 2.5×10^6 HT29 cells. Growth of the tumor was calculated for each animal using a caliper and the equation: V=π×ab^2/6.
(§2) Mouse weight and tumor volume measurements were taken on days 0, 3, 6, 9, 12, 15, 18, 21, and 22 following randomization.

[3] = tested on: HT-29 xenograft murine colon carcinoma model; assay: HT-29 xenograft tumor growth, Compound A01 with erlotinib (Example 1); assay type: in vivo, CB17SCID male mice
Protocol: HT-29 cells were cultured in medium for one week. Following digestion cells were centrifuged for 3-5 minutes at 800-1500 rpm. Cells were washed with PBS and centrifuged again under the same condition. Cells were then suspended in PBS to a final concentration of […]. 200 μL of the HT-29 cell suspension were subcutaneously injected into the mice left forelimb axillary (2.5×10^6 HT-29 cells per mouse).
as §1, §2

[4] = tested on: CT26 xenograft murine colon carcinoma model; assay: CT26 tumor rejection, COX-2 inhibitor with anti-PD1 antibody (Example 2); assay type: in vivo, female BALB/c mice; settings: up to 50 days following inoculation, COX-2 inhibitor oral daily from day 0, anti-PD-1 200 μg/mouse i.p.
Protocol: CT26.WT cells were cultured under standard conditions. They were harvested with trypsin and washed with PBS. 10^5 cells were injected into the right flank of 6 week old female BALB/c mice in total volume of 100 μL. Tumor size was quantified as the mean of the longest diameter and its perpendicular.

[5] = of total CD8+CD4− T cells, Day 16, doses 10 mg/kg
[6] = percentage of total CD45+ cells, Day 16, doses 10 mg/kg

## [2H]C([2H])([2H])c1cc(Br)cc2c1O[C@H](C(F)(F)F)C(C(=O)O)=C2 [Compound A01, (S)-6-bromo-8-trideuteromethyl-2-(trifluoromethyl)-2H-chromene-3-carboxylic acid]
[1]; [5]
  Ki67+ CD8+ T cells: 13.75%
  PD-1+ CD8+ T cells: 84.36%
[1]; [6]
  CD4+ CD8− intratumoral T cells: 1.01%
  CD8+ CD4− intratumoral T cells: 6.32%
  MDSCs (CD11b+Ly6G+): 12.09%
  Tregs (CD25+Foxp3+): 2.29%
[1]; summary of Table 12
  level of Ki67+CD8+ T cells (of total CD8+CD4− T cells), in words: reduced
  level of PD-1+CD8+ T cells (of total CD8+CD4− T cells), in words: reduced
  percentage of intratumoral CD4+CD8− T cells (of total CD45+ cells), in words: increased
  percentage of intratumoral CD8+CD4− T cells (of total CD45+ cells), in words: increased
[2]; 2 and 6 hours post dosing
  effect of oral dosing of erlotinib on plasma concentration of Compound A01: influenced
[2]; A01 1 mg/kg oral
  concentration at 2 h: 3610 ± 1350 ng/mL
  concentration at 6 h: 2250 ± 529 ng/mL
[2]; A01 10 mg/kg oral
  concentration at 2 h: 28400 ± 6020 ng/mL
  concentration at 6 h: 19100 ± 5170 ng/mL
[3]; 10 mg/kg Compound A01 alone
  suppression of tumor growth compared to vehicle: 51%
[3]; Day 0, A01 1 mg/kg oral daily
  Tumor Volume: 71.8 mm^3
[3]; Day 0, A01 10 mg/kg oral daily
  Tumor Volume: 70.1 mm^3
[3]; Day 3, A01 1 mg/kg oral daily
  Tumor Volume: 143.8 mm^3
[3]; Day 3, A01 10 mg/kg oral daily
  Tumor Volume: 145.2 mm^3
[3]; Day 6, A01 1 mg/kg oral daily
  Tumor Volume: 194.2 mm^3
[3]; Day 6, A01 10 mg/kg oral daily
  Tumor Volume: 186.9 mm^3
[3]; Day 9, A01 1 mg/kg oral daily
  Tumor Volume: 301.1 mm^3
[3]; Day 9, A01 10 mg/kg oral daily
  Tumor Volume: 235.1 mm^3
[3]; Day 12, A01 1 mg/kg oral daily
  Tumor Volume: 344.8 mm^3
[3]; Day 12, A01 10 mg/kg oral daily
  Tumor Volume: 292.1 mm^3
[3]; Day 15, A01 1 mg/kg oral daily
  Tumor Volume: 459.4 mm^3
[3]; Day 15, A01 10 mg/kg oral daily
  Tumor Volume: 309.7 mm^3
[3]; Day 18, A01 1 mg/kg oral daily
  Tumor Volume: 820.6 mm^3
[3]; Day 18, A01 10 mg/kg oral daily
  Tumor Volume: 497.5 mm^3
[3]; Day 21, A01 1 mg/kg oral daily
  Tumor Volume: 899.0 mm^3
[3]; Day 21, A01 10 mg/kg oral daily
  Tumor Volume: 592.1 mm^3
[3]; Day 22, A01 1 mg/kg oral daily
  Tumor Volume: 921.1 mm^3
[3]; Day 22, A01 10 mg/kg oral daily
  Tumor Volume: 612.1 mm^3
[3]; HT-29 xenograft, compared to vehicle and to each therapy alone
  slowing of tumor growth, comparison of therapies: superior to 50 mg/kg erlotinib
[4]
  tumor rejection / tumor growth: did not prevent tumor growth
